Measured values from patent US8029764B2, “Methods for detection of colorectal cancer” (The Johns Hopkins University, priority 2001, dated 2011).

System: colorectal tissue transcripts
Assay: SAGE of normal, adenoma and cancer colorectal tissue (transcript tag counts)
Set-up: species or system human
Outline: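 SAGE libraries from two normal colonic epithelium samples, two colorectal adenomas (FAP patients, >70% neoplastic cells) and two colorectal cancers. Transcripts counted as 15-base 3′ tags from oligo(dT)-selected mRNA; repeated ditags, linkers and MHC-locus tags excluded before statistical library comparison.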

[1] = normal colorectal tissue library 1
[2] = normal colorectal tissue library 2

Sequence | AD1 (SAGE tag count) (SAGE library AD1) | AD2 (SAGE tag count) (SAGE library AD2) | CA1 (SAGE tag count) (SAGE library CA1) | CA2 (SAGE tag count) (SAGE library CA2) | NC1 (SAGE tag count) (SAGE library NC1) | NC2 (SAGE tag count) (SAGE library NC2) | AD1 (SAGE tag count) (adenoma library 1) | AD2 (SAGE tag count) (adenoma library 2) | CA1 (SAGE tag count) (cancer library 1) | CA2 (SAGE tag count) (cancer library 2) | NC1 (SAGE tag count) [1] | NC2 (SAGE tag count) [2]
GAGAGCTCCC (chemistry not fully specified) | 3 | 0 | 2 | 1 | 5 | 11 |  |  |  |  |  | 
TGAGTGACAG (chemistry not fully specified) |  |  |  |  |  |  | 0 | 6 | 3 | 7 | 9 | 68
GGGACGAGTG (chemistry not fully specified) | 1 | 3 | 6 | 1 | 20 | 6 |  |  |  |  |  | 
GCAGGGCCTC (chemistry not fully specified) | 41 | 69 | 39 | 51 | 128 | 165 |  |  |  |  |  | 
ACCCAACTGC (chemistry not fully specified) | 0 | 0 | 0 | 0 | 12 | 3 |  |  |  |  |  | 
ATTGGAGTGC (chemistry not fully specified) | 15 | 36 | 37 | 19 | 136 | 85 |  |  |  |  |  | 
ACCTGCATCC (chemistry not fully specified) | 0 | 0 | 0 | 0 | 0 | 12 |  |  |  |  |  | 
GGGGCAGGGC (chemistry not fully specified) | 27 | 10 | 15 | 31 | 48 | 64 |  |  |  |  |  | 
ACCCCCCCGC (chemistry not fully specified) | 7 | 13 | 16 | 6 | 44 | 38 |  |  |  |  |  | 
CTGTACTTGT (chemistry not fully specified) | 1 | 1 | 0 | 0 | 9 | 5 |  |  |  |  |  | 
ACATTGGGTG (chemistry not fully specified) | 67 | 34 | 96 | 33 | 377 | 334 |  |  |  |  |  | 
CGTGGGTGGG (chemistry not fully specified) | 1 | 0 | 0 | 1 | 1 | 10 |  |  |  |  |  | 
CCAAAGCTAT (chemistry not fully specified) | 14 | 12 | 6 | 11 | 42 | 16 |  |  |  |  |  | 
CCAACACCAG (chemistry not fully specified) | 1 | 0 | 0 | 1 | 9 | 19 |  |  |  |  |  | 
GGGCGCTGTG (chemistry not fully specified) | 3 | 6 | 4 | 5 | 11 | 27 |  |  |  |  |  | 
GTGCCTGAGA (chemistry not fully specified) | 2 | 6 | 7 | 3 | 18 | 15 |  |  |  |  |  | 
CTTATGGTCC (chemistry not fully specified) | 0 | 1 | 1 | 0 | 36 | 11 |  |  |  |  |  | 
CTAGCCTCAC (chemistry not fully specified) | 30 | 53 | 36 | 58 | 172 | 90 |  |  |  |  |  | 
ATATAATCTG (chemistry not fully specified) | 1 | 4 | 5 | 5 | 18 | 14 |  |  |  |  |  | 

Sequence | AD1 (SAGE tag count) (SAGE library AD1) | AD2 (SAGE tag count) (SAGE library AD2) | CA1 (SAGE tag count) (SAGE library CA1) | CA2 (SAGE tag count) (SAGE library CA2) | NC1 (SAGE tag count) (SAGE library NC1) | NC2 (SAGE tag count) (SAGE library NC2) | AD1 (SAGE tag count) (adenoma library 1) | AD2 (SAGE tag count) (adenoma library 2) | CA1 (SAGE tag count) (cancer library 1) | CA2 (SAGE tag count) (cancer library 2) | NC1 (SAGE tag count) [1] | NC2 (SAGE tag count) [2]
TGGGGAGAGG (chemistry not fully specified) |  |  |  |  |  |  | 20 | 7 | 3 | 7 | 43 | 18
ATGTGGGCTC (chemistry not fully specified) | 0 | 0 | 0 | 0 | 7 | 2 |  |  |  |  |  | 
AGTGGGCTCA (chemistry not fully specified) | 0 | 1 | 0 | 0 | 3 | 8 |  |  |  |  |  | 
TTAACCCCTC (chemistry not fully specified) |  |  |  |  |  |  | 5 | 9 | 1 | 5 | 34 | 14
GCCAGGTTGC (chemistry not fully specified) | 1 | 1 | 1 | 1 | 14 | 5 |  |  |  |  |  | 
CTGTGTGGCT (chemistry not fully specified; the letters are possibly those of the target site) | 1 | 0 | 0 | 0 | 0 | 12 |  |  |  |  |  | 
GTTTAGAGGG (chemistry not fully specified) |  |  |  |  |  |  | 0 | 0 | 2 | 1 | 5 | 16
GGCACCGTGC (chemistry not fully specified) | 8 | 10 | 8 | 4 | 22 | 44 |  |  |  |  |  | 
GTGGCGGGAA (chemistry not fully specified) | 1 | 0 | 4 | 0 | 3 | 15 |  |  |  |  |  | 
TCACAGTGCC (chemistry not fully specified) |  |  |  |  |  |  | 3 | 1 | 3 | 4 | 26 | 7
CAAATAAAAG (chemistry not fully specified) | 2 | 0 | 1 | 1 | 9 | 12 |  |  |  |  |  | 
GACCAGTGGC (chemistry not fully specified) | 4 | 0 | 2 | 0 | 21 | 44 |  |  |  |  |  | 
CTGGCCCTCG (chemistry not fully specified) | 1 | 3 | 15 | 14 | 186 | 52 |  |  |  |  |  | 
TGACTAATTG (chemistry not fully specified) |  |  |  |  |  |  | 2 | 0 | 0 | 3 | 7 | 9
TGGCGCGTGT (chemistry not fully specified) |  |  |  |  |  |  | 0 | 0 | 9 | 5 | 25 | 8
GTCCTGAACA (chemistry not fully specified) | 0 | 0 | 0 | 0 | 7 | 3 |  |  |  |  |  | 
CTTAGAGGGG (chemistry not fully specified) | 0 | 1 | 1 | 1 | 16 | 22 |  |  |  |  |  | 
CCTCCAGCTA (chemistry not fully specified) | 142 | 125 | 131 | 147 | 715 | 458 |  |  |  |  |  | 
CCAGGGGAGA (chemistry not fully specified) | 24 | 22 | 10 | 20 | 45 | 66 |  |  |  |  |  | 
